From ChEMBL document CHEMBL1201862, “PubChem BioAssay data set” (2004)
The source made the active and inactive calls. Rule as the data show it, for most assays here: actives have a measured IC50 and inactives only a lower limit.

Assays:
Format in all cases: functional
[1] = target: T1, Caspase-3 (Homo sapiens, UniProt P42574);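 also: Dose-response selectivity test against caspase-3 for candidate inhibitors of sentrin-specific proteases (SENPs)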
T1 sequence (P42574 whole entry): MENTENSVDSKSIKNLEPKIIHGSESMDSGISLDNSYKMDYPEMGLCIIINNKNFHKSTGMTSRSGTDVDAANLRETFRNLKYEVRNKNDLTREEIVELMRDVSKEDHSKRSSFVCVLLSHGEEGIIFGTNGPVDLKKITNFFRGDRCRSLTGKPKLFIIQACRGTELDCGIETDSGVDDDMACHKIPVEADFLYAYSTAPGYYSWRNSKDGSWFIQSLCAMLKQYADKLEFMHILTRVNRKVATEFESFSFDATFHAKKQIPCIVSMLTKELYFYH

[2] = target: T2, Sentrin-specific protease 8 (Homo sapiens, UniProt Q96LD8);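 also: luminescence read-out of SENP8 inhibition, dose-response confirmation following an ultra-high-throughput screen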
T2 sequence (Q96LD8 whole entry): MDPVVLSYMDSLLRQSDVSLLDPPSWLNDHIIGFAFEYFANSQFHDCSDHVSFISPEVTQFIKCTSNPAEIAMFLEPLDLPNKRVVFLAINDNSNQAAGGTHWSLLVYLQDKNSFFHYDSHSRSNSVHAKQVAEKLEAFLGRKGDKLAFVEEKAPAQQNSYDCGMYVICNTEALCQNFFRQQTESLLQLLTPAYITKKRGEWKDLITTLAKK

[3] = target: T3, Apoptotic protease-activating factor 1 (Homo sapiens, UniProt O14727)
T3 sequence (O14727 whole entry): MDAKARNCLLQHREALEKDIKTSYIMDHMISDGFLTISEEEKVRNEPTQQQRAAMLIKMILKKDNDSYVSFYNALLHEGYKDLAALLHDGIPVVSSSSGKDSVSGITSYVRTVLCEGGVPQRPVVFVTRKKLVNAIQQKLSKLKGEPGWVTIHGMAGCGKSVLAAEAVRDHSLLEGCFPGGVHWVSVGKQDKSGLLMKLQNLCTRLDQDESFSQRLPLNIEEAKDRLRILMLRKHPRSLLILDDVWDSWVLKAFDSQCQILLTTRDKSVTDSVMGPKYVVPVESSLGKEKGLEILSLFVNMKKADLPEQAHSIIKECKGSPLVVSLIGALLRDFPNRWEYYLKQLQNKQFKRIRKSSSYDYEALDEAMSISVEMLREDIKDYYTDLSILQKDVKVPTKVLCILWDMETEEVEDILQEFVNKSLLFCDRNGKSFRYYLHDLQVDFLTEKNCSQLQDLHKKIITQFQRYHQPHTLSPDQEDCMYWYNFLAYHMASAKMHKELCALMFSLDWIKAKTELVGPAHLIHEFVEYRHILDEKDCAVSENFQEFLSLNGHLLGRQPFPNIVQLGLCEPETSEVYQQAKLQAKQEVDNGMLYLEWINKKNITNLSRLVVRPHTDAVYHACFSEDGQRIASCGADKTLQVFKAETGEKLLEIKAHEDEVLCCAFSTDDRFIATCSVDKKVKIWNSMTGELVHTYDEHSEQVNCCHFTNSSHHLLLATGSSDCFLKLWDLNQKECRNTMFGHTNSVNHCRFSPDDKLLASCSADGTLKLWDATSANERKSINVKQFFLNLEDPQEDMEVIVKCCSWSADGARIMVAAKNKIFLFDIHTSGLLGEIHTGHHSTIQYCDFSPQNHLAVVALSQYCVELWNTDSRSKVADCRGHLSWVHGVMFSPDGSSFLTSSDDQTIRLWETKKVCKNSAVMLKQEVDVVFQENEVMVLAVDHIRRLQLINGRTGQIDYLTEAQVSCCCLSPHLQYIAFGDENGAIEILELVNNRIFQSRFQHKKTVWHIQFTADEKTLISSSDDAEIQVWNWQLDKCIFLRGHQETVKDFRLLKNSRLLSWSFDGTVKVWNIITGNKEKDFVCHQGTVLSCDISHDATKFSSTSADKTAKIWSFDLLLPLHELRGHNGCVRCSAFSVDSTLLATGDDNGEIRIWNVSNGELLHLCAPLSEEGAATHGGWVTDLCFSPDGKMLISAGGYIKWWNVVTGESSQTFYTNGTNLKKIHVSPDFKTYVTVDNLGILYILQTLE

[4] = target: T4, Replicative DNA helicase DnaB (Mycobacterium tuberculosis, UniProt P9WMR3); assay: DnaB intein splicing inhibitors, dose response, biochemical, cell-free fluorescence (AID 449749)
T4 sequence (P9WMR3 whole entry): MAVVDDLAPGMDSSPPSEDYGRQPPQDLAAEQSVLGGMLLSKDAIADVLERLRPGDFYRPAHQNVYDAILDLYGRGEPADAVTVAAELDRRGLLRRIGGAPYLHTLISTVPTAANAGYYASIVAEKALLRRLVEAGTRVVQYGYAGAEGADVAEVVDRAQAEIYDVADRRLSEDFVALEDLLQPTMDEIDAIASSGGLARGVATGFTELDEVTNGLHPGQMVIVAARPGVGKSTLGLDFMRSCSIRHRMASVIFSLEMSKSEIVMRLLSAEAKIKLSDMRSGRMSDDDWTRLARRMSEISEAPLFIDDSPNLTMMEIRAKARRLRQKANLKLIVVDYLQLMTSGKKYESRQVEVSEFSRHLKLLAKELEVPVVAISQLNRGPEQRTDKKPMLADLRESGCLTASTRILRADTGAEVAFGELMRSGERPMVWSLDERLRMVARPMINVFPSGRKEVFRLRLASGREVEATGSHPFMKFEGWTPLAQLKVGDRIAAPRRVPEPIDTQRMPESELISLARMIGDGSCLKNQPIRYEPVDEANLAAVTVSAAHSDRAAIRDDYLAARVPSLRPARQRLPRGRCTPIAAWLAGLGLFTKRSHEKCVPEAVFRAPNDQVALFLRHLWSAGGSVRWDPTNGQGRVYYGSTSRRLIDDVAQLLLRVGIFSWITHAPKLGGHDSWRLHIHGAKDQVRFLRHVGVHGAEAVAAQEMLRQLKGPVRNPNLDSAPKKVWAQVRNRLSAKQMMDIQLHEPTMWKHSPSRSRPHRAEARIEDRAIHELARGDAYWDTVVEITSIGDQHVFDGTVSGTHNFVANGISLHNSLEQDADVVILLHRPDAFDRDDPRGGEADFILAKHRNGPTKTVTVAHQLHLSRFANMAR

[5] = test system: INS1; assay: INS-1E survival protection against cytokine death – cell-based, luminescence, retest, dose response (AID 449756); details: Rattus norvegicus;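 also: cell death triggered by IL-1 beta plus TNF-alpha plus IFN-gamma mixture; protective hits raise ATP signal compared with cytokine alone wells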

Compound: Cc1cnc(NC(=O)c2sc3ccccc3c2Cl)s1
- IC50 [1]: 6.67 µM (active)
- IC50 [2]: 2.56 µM (active)

Compound: CN(C)c1ncc(C2=C(Cl)C(=O)C(N3CCCC3)=C(Cl)C2=O)s1
- IC50 [3]: 25 µM (active)
- AC50 [4]: > 380 µM (inactive)

Compound: O=C1C(Cl)=C(NCc2cccnc2)C(=O)c2ccccc21
- IC50 [3]: 10.1 µM (active)
- AC50 [5]: 7.26 µM (active)
- AC50 [4]: 4.75 µM (active)

Compound: Cc1ccc(Nc2cc(C)nn2-c2nc(C)cc(O)n2)cc1
- AC50 [5]: 0.6 µM (active)
- AC50 [4]: 13.6 µM (active)

Compound: Nc1ccc(Br)c2cccnc12
- IC50 [3]: 39.1 µM (active)
- IC50 [1]: 10.4 µM (active)
- IC50 [2]: 10 µM (active)

Compound: O=C1C(O)=C/C(=N\c2ccccc2O)c2ccccc21
- IC50 [3]: 2.61 µM (active)
- AC50 [5]: 3.26 µM (active)
- IC50 [1]: 8.23 µM (active)
- IC50 [2]: 5.23 µM (active)
- AC50 [4]: 27.4 µM (active)

Compound: Cc1ccc(C(=O)c2c(C)oc3c2C(=O)C(=O)c2ccccc2-3)cc1
- IC50 [3]: 8.09 µM (active)
- AC50 [5]: 2.4 µM (active)
- IC50 [1]: 29.1 µM (active)
- IC50 [2]: 7.82 µM (active)
